≈ marks a conversion by molar mass, not a printed value.
Legend:
Assay type in all cases: functional
[1] = Antioxidant activity assessed as DPPH free radical scavenging activity at 40 ug/ml after 15 mins by spectrophotometric method
[2] = Antioxidant activity assessed as DPPH free radical scavenging activity at 60 ug/ml after 15 mins by spectrophotometric method
Aspergillus niger [3] = experiment: Antifungal activity against Aspergillus niger after 24 hrs by well diffusion method
Aspergillus flavus [4] = experiment: Antifungal activity against Aspergillus flavus assessed as zone of inhibition at 25 ug/ml measured after 24 hrs by well diffusion method; conditions: read-out: IZ
Aspergillus flavus [5] = experiment: Antifungal activity against Aspergillus flavus assessed as zone of inhibition at 100 ug/ml measured after 24 hrs by well diffusion method; conditions: read-out: IZ
Aspergillus niger [6] = experiment: Antifungal activity against Aspergillus niger assessed as zone of inhibition at 50 ug/ml measured after 24 hrs by well diffusion method; conditions: read-out: IZ
[7] = Antioxidant activity assessed as DPPH free radical scavenging activity at 20 ug/ml after 15 mins by spectrophotometric method
[8] = Antioxidant activity assessed as DPPH free radical scavenging activity at 100 ug/ml after 15 mins by spectrophotometric method
Candida albicans [9] = experiment: Antifungal activity against Candida albicans after 24 hrs by well diffusion method
[10] = Antioxidant activity assessed as H2O2 free radical scavenging activity at 40 ug/ml after 10 to 15 mins by spectrophotometric analysis
Candida albicans [11] = experiment: Antifungal activity against Candida albicans assessed as zone of inhibition at 50 ug/ml measured after 24 hrs by well diffusion method; conditions: read-out: IZ
[12] = Antioxidant activity assessed as DPPH free radical scavenging activity at 80 ug/ml after 15 mins by spectrophotometric method
Aspergillus niger [13] = experiment: Antifungal activity against Aspergillus niger assessed as zone of inhibition at 100 ug/ml measured after 24 hrs by well diffusion method; conditions: read-out: IZ
Aspergillus niger [14] = experiment: Antifungal activity against Aspergillus niger assessed as zone of inhibition at 25 ug/ml measured after 24 hrs by well diffusion method; conditions: read-out: IZ
Aspergillus flavus [15] = experiment: Antifungal activity against Aspergillus flavus assessed as zone of inhibition at 50 ug/ml measured after 24 hrs by well diffusion method; conditions: read-out: IZ
[16] = Antioxidant activity assessed as H2O2 free radical scavenging activity at 60 ug/ml after 10 to 15 mins by spectrophotometric analysis
[17] = Antioxidant activity assessed as H2O2 free radical scavenging activity at 20 ug/ml after 10 to 15 mins by spectrophotometric analysis
Aspergillus flavus [18] = experiment: Antifungal activity against Aspergillus flavus after 24 hrs by well diffusion method
Candida albicans [19] = experiment: Antifungal activity against Candida albicans assessed as zone of inhibition at 100 ug/ml measured after 24 hrs by well diffusion method; conditions: read-out: IZ
[20] = Antioxidant activity assessed as DPPH free radical scavenging activity measured after 15 mins by spectrophotometric method
Candida albicans [21] = experiment: Antifungal activity against Candida albicans assessed as zone of inhibition at 25 ug/ml measured after 24 hrs by well diffusion method; conditions: read-out: IZ
[22] = Antioxidant activity assessed as H2O2 free radical scavenging activity at 100 ug/ml after 10 to 15 mins by spectrophotometric analysis
[23] = Antioxidant activity assessed as H2O2 free radical scavenging activity by spectrophotometric analysis
[24] = Antioxidant activity assessed as H2O2 free radical scavenging activity at 80 ug/ml after 10 to 15 mins by spectrophotometric analysis

| MIC (Aspergillus niger [3]) [µg/mL] | MIC (Candida albicans [9]) [µg/mL] | MIC (Aspergillus flavus [18]) [µg/mL] | IC50 [20] [µg/mL] | SMILES | inhibition [1] [%] | inhibition [2] [%] | zone of inhibition at 25 µg/mL (Aspergillus flavus [4]) [mm] | zone of inhibition at 100 µg/mL (Aspergillus flavus [5]) [mm] | zone of inhibition at 50 µg/mL (Aspergillus niger [6]) [mm] | inhibition [7] [%] | inhibition [8] [%] | inhibition [10] [%] | zone of inhibition at 50 µg/mL (Candida albicans [11]) [mm] | inhibition [12] [%] | zone of inhibition at 100 µg/mL (Aspergillus niger [13]) [mm] | zone of inhibition at 25 µg/mL (Aspergillus niger [14]) [mm] | zone of inhibition at 50 µg/mL (Aspergillus flavus [15]) [mm] | inhibition [16] [%] | inhibition [17] [%] | zone of inhibition at 100 µg/mL (Candida albicans [19]) [mm] | also measured |
| --- | --- | --- | --- | --- | --- | --- | --- | --- | --- | --- | --- | --- | --- | --- | --- | --- | --- | --- | --- | --- | --- |
| 6.12 (≈ 16 µM) | 3.12 (≈ 8.15 µM) | 6.25 (≈ 16.3 µM) | 32.224 (≈ 84.2 µM) | Clc1ccc(-c2csc(N/N=C/c3ccc(Cl)cc3Cl)n2)cc1 | 85.9 | 88.9 | 12 | 16 | 13 | 73.9 | 92.4 | 76.2 | 15 | 92.3 | 17 | 12 | 15 | 80.4 | 76 | 18 | zone of inhibition at 25 µg/mL (Candida albicans [21]): 10 mm; inhibition [22]: 84.4%; IC50 [23]: 43.537 µg/mL (≈ 114 µM); inhibition [24]: 83.1% |
| 12.5 (≈ 35.9 µM) | 3.12 (≈ 8.96 µM) | < 3.12 | 29.307 (≈ 84.2 µM) | Clc1ccc(/C=N/Nc2nc(-c3ccccc3)cs2)c(Cl)c1 | 90.2 | 92.8 | 12 | 25 | 10 | 76.6 | 95.8 | 78.9 | 14 | 92.6 | 11 | 8 | 15 | 80.4 | 78.1 | 15 | zone of inhibition at 25 µg/mL (Candida albicans [21]): 12 mm; inhibition [22]: 87.4%; IC50 [23]: 43.712 µg/mL (≈ 126 µM); inhibition [24]: 83.1% |
